Test results published in patent US8754095B2, “Substituted N-heterocycloalkyl bipyrrolidinylphenyl amide derivatives, preparation and therapeutic use thereof” (Sanofi, priority 2010, dated 2014).
Counter-ions that a name gives are not always drawn.

Tests used:
Rats = assay: Forced-Swimming Test in Rats; assay type: in vivo; conditions: rat, p.o. twice, 5-min test
Procedure: This example further illustrates the study of efficacy of the compounds of this invention as antidepressive agents in animal models.
The procedure was a modification of that described by Porsolt et al. (1977) Depression: a new animal model sensitive to antidepressant treatments. Nature 266:730-2. Rats were placed in individual glass cylinder (40 cm height, 18 cm diameter) containing water (22-25° C.) to a height of 15 cm. Two swimming sessions were conducted (a 15-min training session followed 24 h later by a 5-min test). After each swimming session, rats were placed under a heating lamp to avoid hypothermia. The duration of immobility was measured during the 5-min test.
Example 1 of this invention was administered p.o. twice (15 min pre-test followed by first injection 24 h prior to 5 min test) at a dosage of 10 mg/kg.
Example 2 of this invention was administered p.o. twice (15 min pre-test followed by first injection 24 h prior to 5 min test) at a dosage levels of 0.1, 1, and 10 mg/kg.

[1] = target: T1, rhesus (Macacca Mulatta) H3 receptor (Macaca mulatta, UniProt Q865E1); assay: Rhesus H3 [3H]-Methylhistamine radioligand binding assay; parameters: species or system rhesus monkey (Macacca Mulatta); conditions: displacement of [3H]-Methylhistamine (2 nM), rhesus H3 membranes, Cheng-Prusoff
T1 construct: pcDNA5/FRT/TO (Invitrogen) containing the rhesus monkey (Macacca Mulatta) 445 amino acid H3 receptor
T1 sequence (Q865E1 1-445): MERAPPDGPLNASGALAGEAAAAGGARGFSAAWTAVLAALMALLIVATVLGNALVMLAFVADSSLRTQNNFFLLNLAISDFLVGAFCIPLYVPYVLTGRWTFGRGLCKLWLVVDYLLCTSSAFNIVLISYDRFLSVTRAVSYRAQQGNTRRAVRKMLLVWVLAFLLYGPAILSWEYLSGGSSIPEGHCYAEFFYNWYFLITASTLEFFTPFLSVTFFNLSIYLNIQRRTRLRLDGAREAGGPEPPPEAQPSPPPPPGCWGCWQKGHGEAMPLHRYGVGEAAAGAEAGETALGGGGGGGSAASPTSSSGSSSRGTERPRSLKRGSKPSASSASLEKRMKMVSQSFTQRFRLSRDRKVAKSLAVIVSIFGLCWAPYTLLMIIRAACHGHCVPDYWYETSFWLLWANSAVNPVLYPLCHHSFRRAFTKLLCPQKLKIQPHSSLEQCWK
Procedure: Rhesus H3 membranes were prepared from the Flp-In T-REx 293 Cell Line (Invitrogen) stably transfected with pcDNA5/FRT/TO (Invitrogen) containing the rhesus monkey (Macacca Mulatta) 445 amino acid H3 receptor. (Genbank #AY231164). Stably transfected cultures were amplified in tissue culture flasks by standard tissue culture methods and induced to express rhesus H3 by exposure to 500 ng/ml tetracycline (Cellgro) for 24 hours. After induction, cells were dissociated from flasks utilizing Cell Stripper (Cellgro). Cells were centrifuged (1 K×g, 5 min) and pellet frozen in an ethanol-dry ice bath to disrupt cell membranes. Frozen cell pellet was re-suspended in 5 mM HEPES (pH 7.4, Invitrogen) at 10 ml/1000 cm2 of harvested cells. The cell suspension was drawn through an 18 gauge needle (2-3×) followed by a 23 gauge needle (2-3×) to further disrupt cell membranes. The cell suspension was centrifuged (40K×g, 30 min). Cell membrane pellet was re-suspended in 5 mM HEPES (pH 7.4, Invitrogen) at a final protein concentration of 10 mg/ml. Rhesus H3 membranes were stored under liquid nitrogen prior to use in [3]-Methylhistamine and GTPγS radioligand binding assays.
(§1) Rhesus H3 radioligand binding assay was performed using rhesus H3 receptor membranes (prepared as described above), [3H]-Methylhistamine (Perkin Elmer) and WGA SPA beads (wheat germ agglutinin scintillation proximity assay) beads (Amersham). The assay was performed in 96-well Opti-Plates (Packard). Each reaction contained 50 μl rhesus H3 membranes (20-30 μg total protein), 50 μl WGA SPA beads (0.1 μg) and 50 μl of 83 Ci/mmol [^3H]-Methylhistamine (final concentration 2 nM) and 50 μl of tested compound. The compounds of this invention and/or vehicle were diluted with binding buffer from 10 mM DMSO stocks. Assay plates were sealed with TopSeal (Perkin Elmer) and mixed on shaker (25° C., 1 hour). Assay plates were read on TopCount scintillation counter (Packard). Results were analyzed by Hill transformation and Ki values were determined by Cheng-Prusoff equation. Similar procedures were employed to determine the binding data for rat and mouse.

Mouse H3 = Mouse H3 (Mus musculus, UniProt P58406); assay: Mouse H3 radioligand binding assay; conditions: similar procedure as rhesus binding
Mouse H3, sequence (P58406 whole entry): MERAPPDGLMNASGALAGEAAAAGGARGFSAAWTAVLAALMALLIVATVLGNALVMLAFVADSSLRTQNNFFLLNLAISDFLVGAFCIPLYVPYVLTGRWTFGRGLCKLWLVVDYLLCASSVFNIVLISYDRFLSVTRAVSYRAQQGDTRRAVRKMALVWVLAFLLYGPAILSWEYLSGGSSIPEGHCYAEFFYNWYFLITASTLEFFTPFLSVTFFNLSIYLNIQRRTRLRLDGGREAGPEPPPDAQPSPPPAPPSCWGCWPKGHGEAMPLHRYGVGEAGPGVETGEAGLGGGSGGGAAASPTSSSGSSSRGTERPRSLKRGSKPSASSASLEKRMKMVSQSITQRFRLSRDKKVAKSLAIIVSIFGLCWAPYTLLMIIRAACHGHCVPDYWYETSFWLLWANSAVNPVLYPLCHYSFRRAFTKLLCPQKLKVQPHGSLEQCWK
Procedure: as §1

Rat H3 = Rat H3 (Rattus norvegicus, UniProt Q9QYN8); assay: Rat H3 radioligand binding assay; conditions: similar procedure as rhesus binding
Rat H3, sequence (Q9QYN8 whole entry): as the sequence (P58406 whole entry) above, with A15T, T286A, G290A, H387R, V389I counted along it
Procedure: as §1

Row | Compound | Ki [1] [nM] | Ki (Mouse H3) [nM] | Ki (Rat H3) [nM] | melting point [°C] | activity in forced-swimming test (duration of immobility) (Rats; 10 mg/kg) | activity in forced-swimming test (duration of immobility) (Rats; 0.1 mg/kg) | activity in forced-swimming test (duration of immobility) (Rats; 1 mg/kg)
1 | C[C@H]1CCCN1[C@H]1CCN(c2ccc(CC(=O)NC3CCOCC3)cc2)C1 [Example 1, 2-[4-((2S,3′S)-2-Methyl-[1,3′]bipyrrolidinyl-1′-yl)-phenyl]-N-(tetrahydro-pyran-4-yl)-acetamide] | 2.5 | 10.8 | 8.32 |  | active |  | 
2 | C[C@H]1CCCN1[C@H]1CCN(c2ccc3cc(C(=O)NC4CCOCC4)ccc3c2)C1 [Example 2, 6-((2S,3′S)-2-Methyl-[1,3′]bipyrrolidinyl-1′-yl)-naphthalene-2-carboxylic acid (tetrahydro-pyran-4-yl)amide] | 2.99 | 19.6 | 9.79 |  | active | active | active
3 | C[C@H]1CCCN1[C@H]1CCN(c2ccc(C(=O)NC3CCOCC3)cc2)C1 [Example 3, 4-((2S,3′S)-2-Methyl-[1,3′]bipyrrolidinyl-1′-yl)-N-(tetrahydro-pyran-4-yl)-benzamide] | 1.98 | 10.1 | 15 | 180 |  |  | 
4 | C[C@H]1CCCN1[C@H]1CCN(c2ccc(CC(=O)NC3CCNCC3)cc2)C1 [Example 7, 2-[4-((2S,3′S)-2-Methyl-[1,3′]bipyrrolidinyl-1′-yl)-phenyl]-N-piperidin-4-yl-acetamide hydrochloride] | 0.804 |  | 1.12 |  |  |  | 
5 | CCOC(=O)N1CCC(NC(=O)Cc2ccc(N3CC[C@H](N4CCC[C@@H]4C)C3)cc2)CC1 [Example 8, 4-{2-[4-((2S,3′S)-2-Methyl-[1,3′]bipyrrolidinyl-1′-yl)-phenyl]-acetylamino}-piperidine-1-carboxylic acid ethyl ester] | 1.59 |  | 8.25 |  |  |  | 
6 | C[C@H]1CCCN1[C@H]1CCN(c2ccc(CC(=O)NC3CCN(CC4CCCC4)CC3)cc2)C1 [Example 9, N-(1-Cyclopentylmethyl-piperidin-4-yl)-2-[4-((2S,3′S)-2-methyl-[1,3′]bipyrrolidinyl-1′-yl)-phenyl]-acetamide] | 0.69 |  | 1.26 |  |  |  | 

Further lines, with some results ahead:

Row | Ki [1] [nM] | Ki (Mouse H3) [nM] | Ki (Rat H3) [nM] | melting point [°C] | Compound | activity in forced-swimming test (duration of immobility) (Rats; 10 mg/kg) | activity in forced-swimming test (duration of immobility) (Rats; 0.1 mg/kg) | activity in forced-swimming test (duration of immobility) (Rats; 1 mg/kg)
7 | 1.52 | 12.1 | 19.7 | 147 | Cc1cc(N2CC[C@H](N3CCC[C@@H]3C)C2)ccc1C(=O)NC1CCOCC1 [Example 4, 2-Methyl-4-((2S,3′S)-2-methyl-[1,3′]bipyrrolidinyl-1′-yl)-N-(tetrahydro-pyran-4-yl)-benzamide] |  |  | 
8 | 1.24 | 40.3 | 19.1 |  | C[C@H]1CCCN1[C@H]1CCN(c2ccc(C(=O)NCC3CCOCC3)cc2)C1 [Example 5, 4-((2S,3′S)-2-Methyl-[1,3′]bipyrrolidinyl-1′-yl)-N-(tetrahydro-pyran-4-ylmethyl)-benzamide] |  |  | 
9 | 2.75 |  | 19.4 |  | C[C@H]1CCCN1[C@H]1CCN(c2ccc(CC(=O)NC3CCN(C(=O)OC(C)(C)C)CC3)cc2)C1 [Example 6] |  |  | 
10 | 0.466 | 4.4 | 0.929 |  | CNC(=O)C1CCN(Cc2ccc(N3CC[C@H](N4CCC[C@@H]4C)C3)cc2)CC1 [Example 10, 1-[4-((2S,3′S)-2-Methyl-[1,3′]bipyrrolidinyl-1′-yl)-benzyl]-piperidine-4-carboxylic acid methylamide; hydrochloride] |  |  | 
